Data: patent US11835522B2, “Sensors for detecting and imaging of cancer metastasis” (Massachusetts Institute of Technology, priority 2019, dated 2023)

How the values were obtained:
[1] = tested on: CRC liver metastases; experiment: 5-FU treatment monitored with PRISM, CRC liver metastasis model; format: in vivo, mice; settings: 5-FU 15 mg/kg i.p.
From the text: (§1) After validation of the efficacy of tailored PRISM nanoparticles, these sensors were applied to study how proteolytic activities correlate with changes in the progression of disease over time and in response to drug treatment. In addition, molecular imaging was safely performed for any lesion for multiple times, providing information related to regional heterogeneity in a given tumor. To evaluate PRISM in monitoring treatment responses, mice were grouped into two categories (n=5 each) to allow monitoring the effect of standard chemotherapy 5-FU treatment: one group received drug (15 mg/kg) by i.p. injection (daily injection for 4 days and once every other day till end of study); and the second group received vehicle as control. To monitor therapeutic responses in treating metastases, PRISM was intravenously injected in each group of mice. After 1 hr of sensor injection, urinary reporter level was assayed to track local proteolytic activity, reflecting tumor invasion capacity. At 6 hrs post-injection, mice were scanned using a small animal PET/CT imager for longitudinal assessment of the tumor progression. […] Real-time images were analyzed and standard uptake value of radioactive reporters were quantified using VivoQuant software.

[2] = tested on: CRC lung metastases; experiment: 5-FU treatment monitored with PRISM, CRC lung metastasis model; format: in vivo, mice
From the text: as §1
To monitor therapeutic responses when metastases in the CRC lung metastasis model were treated, PRISM was again intravenously injected in two group of mice on a weekly basis. One hour following sensor injection, urinary reporter level was read to track the local proteolytic activity. […] 6 hours after sensor injection, PET/CT were applied to monitor tumor growth or regression, which provides a longitudinal, noninvasive assessment of the efficacy of anti-tumor drug treatment. […] Consistently, the relative lung/liver ratio of PET/CT signal in the cohort that received no treatment was over 3 times higher than that of the cohort treated with chemotherapy (n=5) (FIG. 6G).

## O=c1[nH]cc(F)c(=O)[nH]1 [5-FU]
[1]; started two weeks after tumor inoculation, PET/CT
  tumor progression / tumor growth vs untreated: significantly inhibited tumor progression
[1]; urine 1 hr after PRISM injection
  urinary reporter level vs non-treated cohort: decreased urinary reporter level
[2]; 5-FU treated mice, urine one hour after PRISM injection
  urinary reporter level vs untreated control group: Significantly reduced urinary reporter levels
[2]; PET/CT 6 hours after sensor injection
  tumor growth vs untreated controls: slower tumor growth
[2]; n=5, FIG. 6G
  relative lung/liver ratio of PET/CT signal, untreated cohort relative to 5-FU treated cohort: over 3 times
